Experimental data taken from patent US8501910B2, “Protein sweetener” (Wisconsin Alumni Research Foundation, priority 2007, dated 2013).

System: humans
Experiment: Human taste panel scoring sweetness on a magnitude labeled scale
Assay type: in vivo
Conditions: for sweetness potency: FIG. 1, human taste panel, varied concentrations diluted in water, compared for the weight being tested
Source text: To test the sweetness potency of our peptides we tested human perception of sweetness against known controls using varied concentrations of the protein (or other substance) being diluted in water. In the taste panel, humans were requested to score the sweetness sensations of the stimuli with a magnitude labeled scale in accordance with the techniques of B. Green et al., 21 Chemical Senses 323 (1996) (e.g. barely detectable; weak; moderate; strong; very strong; strongest imaginable).
We first gave those testers a sample of pure water with 2-10% sucrose as a calibration exercise two hours before protein testing. After the sucrose testing, they rinsed their mouth out thoroughly. The normal protocol included applying about 125 μI of the substance being tasted to the tongue, with the tested material kept in the mouth for about a minute.

Row | Substance | sweetness potency (individual observer) (tested by one individual observer, not a complete panel) | sweetness potency
1 | SEQ ID NO. 4: Brazzein variant with tyrosine at position 53 of SEQ ID NO: 1 replaced by another amino acid (probably Phe) (DKCKKVYENYPVSKCQLANQCNYDCKLKKHARSGECFYDEKRNLQCICDYCEF) | results similar to those for SEQ ID NO.5 | 
2 | SEQ ID NO. 5: Brazzein variant Y53W: tyrosine at position 53 of SEQ ID NO: 1 replaced (DKCKKVYENYPVSKCQLANQCNYDCKLKKHARSGECFYDEKRNLQCICDYCEW) |  | significantly higher sweetness potency than either sucrose or wild type Brazzein
3 | SEQ ID NO. 6: Brazzein variant Y53H: tyrosine at position 53 of SEQ ID NO: 1 replaced (DKCKKVYENYPVSKCQLANQCNYDCKLKKHARSGECFYDEKRNLQCICDYCEH) |  | significantly higher sweetness potency than sucrose
4 | SEQ ID NO. 7: Brazzein variant with Ile Ile inserted at the N terminus of wild type Brazzein (IIDKCKKVYENYPVSKCQLANQCNYDCKLNKHARSGECFYDEKRNLQCICDYCEY) |  | significantly higher sweetness potency than either sucrose or wild type Brazzein
5 | SEQ ID NO. 8: Brazzein variant with Gly Pro inserted at the N terminus of wild type Brazzein (GPDKCKKVYENYPVSKCQLANQCNYPCKLNKHARSGECFYDEKRNLQCICDYCEY) |  | significantly higher sweetness potency than either sucrose or wild type Brazzein
